The text below walks through data of the supplement of paper PMC12592484.

Holding throughout (experiment): drug sensitivity score (DSS2, normalised partial AUC of dose-response, 72 h CellTiter-Glo viability) (DSS (dimensionless)); higher = more sensitive (stronger growth inhibition / cytotoxicity); extreme values may be limits of the assay
The subject of one assay is 22Rv1. The procedure, abridged:
(§1)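 Low-passage primary prostate cancer-associated fibroblasts, PF179T, WPMY-1, LNCaP and 22Rv1 cells were seeded into 384-well plates carrying pre-dispensed compounds at five doses covering a 10,000-fold range. After 72 h, viability was read by CellTiter-Glo 2.0 luminescence. Responses were scaled to vehicle and positive-control wells. The drug sensitivity score (DSS2) is a partial area under the fitted logistic dose–response curve divided by the log of its upper asymptote, computed in BREEZE; higher means more sensitive.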

A further assay relates to CAF#1 (primary prostate cancer-associated fibroblasts of myCAF-like type). In a few lines:
as §1

The next assay relates to CAF#2 (primary prostate cancer-associated fibroblasts of iCAF-like type). In a few lines:
as §1

In the next assay the test system is CAF#3 (primary prostate cancer-associated fibroblasts of myCAF-like type). In a few lines:
as §1

For the next assay, the system named is CAF#4 (primary prostate cancer-associated fibroblasts of iCAF-like type). The procedure, abridged: as §1
The next assay has as its system CAF#5 (primary prostate cancer-associated fibroblasts of myCAF-like type). In a few lines: as §1
Another assay concerns CAF#6 (primary prostate cancer-associated fibroblasts of iCAF-like type). In a few lines:
as §1

The next assay concerns CAF#7 (primary prostate cancer-associated fibroblasts of myCAF-like type). The procedure, abridged: as §1
For a further assay, the system named is LNCAP. In a few lines:
as §1

In a further assay the test system is PF179T. In a few lines:
as §1

Another assay relates to WPMY-1. The procedure, abridged: as §1

For `CC(=O)[C@]1(O)Cc2c(O)c3c(c(O)c2[C@@H](O[C@H]2C[C@H](N)[C@H](O)[C@H](C)O2)C1)C(=O)c1ccccc1C3=O` [Idarubicin] (tested concentration range 0.1-1000 nM), the drug sensitivity score was determined as 12.9 with 22Rv1; 7.6 in the assay with CAF#1; 12.1 in the assay on CAF#2; 4.4 in the assay with CAF#3; 7.5 in the assay on CAF#4; 7.9 in the assay with CAF#5. Moreover, the drug sensitivity score worked out at 8.5 in the assay on CAF#6; 9.3 in the assay on CAF#7; 19.9 with LNCAP; 12.5 in the assay on PF179T; 16.4 with WPMY-1.

As for `CN1CCN(CCOc2cc(OC3CCOCC3)c3c(Nc4c(Cl)ccc5c4OCO5)ncnc3c2)CC1` [Saracatinib] (tested concentration range 1-10000 nM), the drug sensitivity score in the assay with 22Rv1 worked out at 4.3; in the assay with CAF#1 it was 7.7; in the assay with CAF#2, 7.7; in the assay with CAF#3 it was 10.1; with CAF#4, 6.7; in the assay with CAF#5 it was 8.2. In addition, the drug sensitivity score in the assay with CAF#6 was 6.6; with CAF#7, 5.8; in the assay on LNCAP, 6.4; in the assay on PF179T it was 5.5; in the assay with WPMY-1 it was 5.4.

Consider `Cc1nc(Nc2ncc(C(=O)Nc3c(C)cccc3Cl)s2)cc(N2CCN(CCO)CC2)n1` [Dasatinib] (tested concentration range 0.1-1000 nM), for which the drug sensitivity score in the assay on 22Rv1 was 0; with CAF#1, 13.8; in the assay on CAF#2, 15.5; in the assay with CAF#3 it was 13.7; with CAF#4, 10.3; in the assay with CAF#5, 15.2. For the same compound, the drug sensitivity score in the assay on CAF#6 came out at 13; in the assay on CAF#7 it was 15.3; with LNCAP, 5; in the assay on PF179T, 11.7; in the assay with WPMY-1, 5.3.

As to `CC(C)C[C@@H](C(=O)N[C@H](C(=O)OC1CCCC1)c1ccccc1)[C@H](O)C(=O)NO` [Tosedostat] (tested concentration range 1-10000 nM), the drug sensitivity score with 22Rv1 is 4.4; in the assay with CAF#1, 0; in the assay on CAF#2, 0.6; in the assay with CAF#3, 1; in the assay with CAF#4, 0; in the assay with CAF#5, 3.5. Also, the drug sensitivity score in the assay with CAF#6 was found to be 2.7; in the assay on CAF#7, 5.1; in the assay on LNCAP it was 8.6; in the assay on PF179T it was 1.2; in the assay with WPMY-1, 9.3.

Turning to `CCc1c2c(nc3ccc(O)cc13)-c1cc3c(c(=O)n1C2)COC(=O)[C@]3(O)CC` [SN-38] (tested concentration range 1-10000 nM), the drug sensitivity score in the assay with 22Rv1 amounted to 39.3; in the assay on CAF#1, 20.3; with CAF#2, 25.5; in the assay on CAF#3, 7.1; in the assay on CAF#4, 20.3; with CAF#5, 14.3. The drug sensitivity score amounted to 8.7 in the assay on CAF#6; 11.8 in the assay with CAF#7; 34.8 with LNCAP; 19.7 in the assay with PF179T; 35 in the assay on WPMY-1.

On to `CC1(C)CC[C@]2(NC(=O)C(C)(F)F)CC[C@]3(C)[C@H](C(=O)C=C4[C@@]5(C)C=C(C#N)C(=O)C(C)(C)[C@@H]5CC[C@]43C)[C@@H]2C1` [Omaveloxolone] (tested concentration range 1-10000 nM), for which the drug sensitivity score was found to be 14.4 with 22Rv1; 19.8 in the assay with CAF#1; 23.2 in the assay with CAF#2; 4.6 in the assay on CAF#3; 17 with CAF#4; 18.5 in the assay with CAF#5. Also, the drug sensitivity score with CAF#6 was 5.3; in the assay on CAF#7, 4.8; with LNCAP, 23.9; in the assay on PF179T it was 14.8; in the assay on WPMY-1, 18.4.

As for `CC[C@H](C)C(=O)O[C@H]1C[C@@H](C)C=C2C=C[C@H](C)[C@H](CC[C@@H]3C[C@@H](O)CC(=O)O3)[C@H]21` [Lovastatin] (tested concentration range 1-10000 nM), the drug sensitivity score was 1 with 22Rv1; 2.8 in the assay with CAF#1; 5.5 in the assay with CAF#2; 0.3 in the assay on CAF#3; 3.4 in the assay on CAF#4; 3.7 with CAF#5. The drug sensitivity score with CAF#6 was determined as 2.6; with CAF#7, 3; in the assay with LNCAP it was 0; with PF179T, 3.3; with WPMY-1, 1.1.

With `CO[C@@H]1[C@H](N(C)C(=O)c2ccccc2)C[C@H]2O[C@]1(C)n1c3ccccc3c3c4c(c5c6ccccc6n2c5c31)C(=O)NC4` [Midostaurin] (tested concentration range 1-10000 nM), the drug sensitivity score worked out at 0 in the assay with 22Rv1; 18.7 in the assay with CAF#1; 20.7 with CAF#2; 12.5 in the assay with CAF#3; 16.1 in the assay on CAF#4; 16.5 in the assay on CAF#5. Besides, the drug sensitivity score in the assay with CAF#6 came to 18.3; in the assay on CAF#7, 19.8; with LNCAP, 4.2; in the assay on PF179T, 18.4; in the assay on WPMY-1 it was 11.9.

As to `CNc1nc(-c2ccc3c(N)n[nH]c3c2)cc(N2C[C@@H](C(=O)NC3CCCCC3)CC[C@H]2C)n1` (tested concentration range 1-10000 nM), the drug sensitivity score with 22Rv1 came out at 6.4; in the assay on CAF#1 it was 4; in the assay on CAF#2 it was 1.1; with CAF#3, 6.6; with CAF#4, 2.4; with CAF#5, 5.8. For the same compound, the drug sensitivity score was determined as 4 with CAF#6; 3.8 with CAF#7; 7.5 with LNCAP; 0 with PF179T; 1.4 in the assay with WPMY-1.

Turning to `CCS(=O)(=O)N1CC(CC#N)(n2cc(-c3ncnc4[nH]ccc34)cn2)C1` [Baricitinib] (tested concentration range 0.2-2500 nM), the drug sensitivity score with 22Rv1, with CAF#1, with CAF#2, with CAF#3, in the assay with CAF#4 and with CAF#5 was 0 in each case. The drug sensitivity score with CAF#6, in the assay on CAF#7, in the assay on LNCAP, in the assay on PF179T and in the assay with WPMY-1 was 0 in each case.

On to `O=C(CCCCCCC(=O)Nc1ccc([C@H]2O[C@@H](CSc3nc(-c4ccccc4)c(-c4ccccc4)o3)C[C@@H](c3ccc(CO)cc3)O2)cc1)NO` [Tubacin] (tested concentration range 1-10000 nM), for which the drug sensitivity score in the assay on 22Rv1 is 5.6; with CAF#1, 2; in the assay with CAF#2, 2.4; with CAF#3, 0; in the assay on CAF#4, 1.4; in the assay on CAF#5 it was 2.3. The drug sensitivity score is 1.1 with CAF#6; 3.3 in the assay with CAF#7; 7 with LNCAP; 3.4 in the assay with PF179T; 5.3 in the assay on WPMY-1.

For the compound `Cn1ncc(Cl)c1-c1cc(C(=O)N[C@H](CN)Cc2cccc(F)c2)sc1Cl` [Afuresertib] (tested concentration range 0.1-1000 nM), the drug sensitivity score in the assay with 22Rv1 worked out at 4.6; in the assay on CAF#1 it was 3.2; with CAF#2 it was 1.5; in the assay on CAF#3, 0; in the assay with CAF#4, 1.7; in the assay with CAF#5 it was 2. Further, the drug sensitivity score with CAF#6 amounted to 0.6; in the assay on CAF#7, 0; in the assay with LNCAP, 17; in the assay on PF179T, 0.1; in the assay on WPMY-1 it was 0.6.
